Source: patent publication US20240262826A1, “WILD TYPE KIT INHIBITORS” (Blueprint Medicines Corporation, priority 2022, published 2024)

Assays:
wild type c-kit [1] = target: T1, wild type c-kit (Homo sapiens (Human), UniProt P10721); test: MSD Phospho c-Kit (Tyr721) Assay Whole Cell Lysate Kit in SCF-stimulated M-07e cells (pKIT assay, marked *); assay type: cell-based; conditions: Meso Scale Discovery (MSD) assay (values marked *)
[2] = target: human P-glycoprotein (P-gp, MDR1) (Homo sapiens (Human), UniProt P08183); test: MDCK-MDR1 cell monolayer drug transport assay (P-gp efflux ratio); assay type: in vitro ADME; conditions: pH 7.4, MDCK-MDR1 cells, 1 uM concentration of compound, read-out: Pgp Efflux Ratio, 1 uM
In short: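 P-gp substrate potential tested in MDCK-MDR1 monolayers on Transwell supports, cultured 4-8 days; monolayers with TEER <42 ohms·cm2 discarded. Transport run in HBSS (10 mM HEPES, pH 7.4) at 37° C with compound working solution at 1 μM.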

wild type c-kit [3] = target: T1, wild type c-kit; test: PathScan phospho c-kit (Tyr719) sandwich ELISA in SCF-stimulated M-07e cells (pKIT assay); assay type: cell-based; conditions: ELISA assay (values not marked *)
In short: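 Serum- and GM-CSF-starved M-07e cells (4 h) pretreated 60 min at 37 °C with an 8-point compound series in duplicate (0.25% DMSO), then stimulated with human SCF (500 ng/mL stock) 10 min at room temperature. Lysate c-kit Tyr719 phosphorylation quantified by sandwich ELISA with TMB read-out; IC50 from 4-parameter logistic fit.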

[4] = tested on: NIH3T3 cell lines that overexpressed the kit mutation exon 9; test: Exon 9 assay: cell viability (CellCounting Lite 2.0), 72 hours; assay type: cell-based; conditions: Mus musculus, read-out: IC50 NIH3T3-cKit-AY502-3dup
Method: (§1) Exon 9 assay: The NIH3T3 cell lines that overexpressed the kit mutation exon 9 (or parental cells) were resuscitated and well cultured, and the cells were collected and seeded in 96-well plates at 3000/well, then the compounds were added to the 96 well plates in a gradient dilution, and the plates were incubated in an incubator for 72 hours.
(§2) After 72 hours of incubation, an equal volume of CellCounting
(§3) Lite 2.0 Luminescent Cell Viability reagent was added to the 96-well plates to detect the cell viability. The data were analyzed using GraphPad Prism 7.0 softwar e, and the nonlinear S-curve regression was used to fit the data to obtain the dose-effect curve, and the IC50 value was calculated accordingly.

NIH3T3 parental cells = test: Exon 9 assay, parental cells: cell viability (CellCounting Lite 2.0), 72 hours; assay type: cell-based; conditions: Mus musculus
Method: as §1, §2, §3

Exon 11 KIT = Exon 11 KIT (Homo sapiens (Human), UniProt P10721, V560G); test: Exon 11 HMC1.1 autophosphorylation assay (Phospho-Y719 c-KIT ELISA); assay type: cell-based; conditions: 90 minutes, read-out: IC50 HMC1.1 pKIT
Method: Exon 11 HMC1.1 autophosphorylation assay: 50,000 HMC1.1 cells were incubated in 50 ul culture media (phenol-red free IMDM, no iron, no serum) in each well of a 96-well plate and serum starved 4 hours in a tissue culture incubator (5% CO2, 37° C.). An 8-point dose concentration series of compound were then added to the cells in a volume of 7 ul to each well. After 90 minutes, 14 ul of 5× AlphaLISA Lysis Buffer (Perkin Elmer) supplemented with a protease and phosphatase inhibitor cocktail (Cell Signaling Technologies) was added to each well and shaken at […] for 5 minutes at 4° C. Phospho-Y719 c-KIT ELISA kit from Cell Signaling Technology was used to assess levels of phospho KIT.

Chain of Exon 11 KIT (P10721 26-976 V560G): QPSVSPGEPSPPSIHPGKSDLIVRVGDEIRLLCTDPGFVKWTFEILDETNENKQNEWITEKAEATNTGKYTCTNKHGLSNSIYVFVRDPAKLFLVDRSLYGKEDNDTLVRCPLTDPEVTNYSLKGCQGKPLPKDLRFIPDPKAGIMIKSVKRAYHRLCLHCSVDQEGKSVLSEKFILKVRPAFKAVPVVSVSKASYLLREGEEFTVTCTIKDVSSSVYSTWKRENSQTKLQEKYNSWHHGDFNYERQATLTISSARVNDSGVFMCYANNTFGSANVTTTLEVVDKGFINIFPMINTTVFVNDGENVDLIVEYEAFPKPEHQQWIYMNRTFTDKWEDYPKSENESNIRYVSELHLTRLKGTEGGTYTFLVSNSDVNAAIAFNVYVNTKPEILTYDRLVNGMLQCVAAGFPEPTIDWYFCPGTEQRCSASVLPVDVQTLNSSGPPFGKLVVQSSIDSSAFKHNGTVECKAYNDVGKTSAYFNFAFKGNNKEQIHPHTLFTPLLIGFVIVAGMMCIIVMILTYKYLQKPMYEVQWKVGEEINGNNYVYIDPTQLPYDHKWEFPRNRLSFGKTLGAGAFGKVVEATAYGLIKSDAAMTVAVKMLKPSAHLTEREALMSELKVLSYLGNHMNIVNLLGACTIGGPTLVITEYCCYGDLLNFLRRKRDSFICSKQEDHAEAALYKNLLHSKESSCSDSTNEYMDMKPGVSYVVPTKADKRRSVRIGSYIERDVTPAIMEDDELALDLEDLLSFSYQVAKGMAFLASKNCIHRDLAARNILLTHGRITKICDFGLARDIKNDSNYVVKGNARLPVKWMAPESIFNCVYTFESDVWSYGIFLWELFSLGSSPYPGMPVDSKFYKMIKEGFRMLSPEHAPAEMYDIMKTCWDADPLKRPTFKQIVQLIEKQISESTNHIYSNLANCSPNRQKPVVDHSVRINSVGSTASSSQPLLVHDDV
Chain of human P-glycoprotein (P-gp, MDR1) (P08183 whole entry): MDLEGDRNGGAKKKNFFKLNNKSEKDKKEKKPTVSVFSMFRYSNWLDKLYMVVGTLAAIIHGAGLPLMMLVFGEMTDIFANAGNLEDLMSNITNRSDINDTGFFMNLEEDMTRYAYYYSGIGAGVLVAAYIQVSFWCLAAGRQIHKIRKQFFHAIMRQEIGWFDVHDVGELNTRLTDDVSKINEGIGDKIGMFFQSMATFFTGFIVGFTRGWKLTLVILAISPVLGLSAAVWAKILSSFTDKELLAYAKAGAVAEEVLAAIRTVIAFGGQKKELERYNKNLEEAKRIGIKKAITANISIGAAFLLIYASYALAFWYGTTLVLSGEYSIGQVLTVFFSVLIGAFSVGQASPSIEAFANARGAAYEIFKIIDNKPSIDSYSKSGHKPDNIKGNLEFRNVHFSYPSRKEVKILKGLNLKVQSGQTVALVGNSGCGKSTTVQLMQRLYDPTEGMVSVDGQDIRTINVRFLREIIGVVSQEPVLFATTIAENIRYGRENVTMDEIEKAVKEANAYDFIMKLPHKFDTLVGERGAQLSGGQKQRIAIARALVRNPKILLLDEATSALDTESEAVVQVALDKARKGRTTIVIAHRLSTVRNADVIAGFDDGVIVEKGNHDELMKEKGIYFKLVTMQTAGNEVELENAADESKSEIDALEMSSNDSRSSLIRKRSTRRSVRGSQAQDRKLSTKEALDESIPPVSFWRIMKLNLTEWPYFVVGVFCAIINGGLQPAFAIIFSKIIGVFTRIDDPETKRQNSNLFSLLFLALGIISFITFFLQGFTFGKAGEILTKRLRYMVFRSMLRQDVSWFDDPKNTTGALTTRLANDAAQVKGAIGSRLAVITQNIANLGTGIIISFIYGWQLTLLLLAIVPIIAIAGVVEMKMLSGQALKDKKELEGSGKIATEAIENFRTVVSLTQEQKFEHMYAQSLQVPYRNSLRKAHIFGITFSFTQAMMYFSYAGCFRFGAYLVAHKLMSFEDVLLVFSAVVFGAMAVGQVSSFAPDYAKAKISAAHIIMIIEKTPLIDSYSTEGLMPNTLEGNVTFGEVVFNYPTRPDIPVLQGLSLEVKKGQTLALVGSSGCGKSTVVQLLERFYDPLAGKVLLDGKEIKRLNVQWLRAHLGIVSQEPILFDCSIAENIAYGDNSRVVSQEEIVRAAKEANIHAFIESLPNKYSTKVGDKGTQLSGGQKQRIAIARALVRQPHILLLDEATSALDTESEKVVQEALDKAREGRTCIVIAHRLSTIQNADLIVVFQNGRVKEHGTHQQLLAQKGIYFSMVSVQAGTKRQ
T1 sequence (P10721 26-976): as the sequence (P10721 26-976 V560G) above, with G535V counted along it

## Cc1ccc(-c2nnn(C3CC(F)(F)C3)n2)cc1NC(=O)c1cnn2ccc(-c3cn[nH]c3)cc12 [Example 198, N-(5-(2-(3,3-difluorocyclobutyl)-2H-tetrazol-5-yl)-2-methylphenyl)-5-(1H-pyrazol-4-yl)pyrazolo[1,5-a]pyridine-3-carboxamide]
Wild type c-kit [1]
  IC50: 1.7 nM
[2]
  efflux ratio at 2 h, 1 µM: 16.6

## COCCOC[C@H](O)Cn1cc(-c2ccn3ncc(C(=O)Nc4cc(-c5nnn(C6CC6)n5)c(F)cc4Cl)c3c2)c(C)n1 [Example 286, (R)—N-(2-chloro-5-(2-cyclopropyl-2H-tetrazol-5-yl)-4-fluorophenyl)-5-(1-(2-hydroxy-3-(2-methoxyethoxy)propyl)-3-methyl-1H-pyrazol-4-yl)pyrazolo[1,5-a]pyridine-3-carboxamide]
Wild type c-kit [3]
  IC50: 0.3 nM
[4]
  IC50: 42.5 nM
NIH3T3 parental cells
  IC50: 480 nM

## Cc1nn(C[C@H](C)O)cc1-c1ccn2ncc(C(=O)Nc3cc(-c4nnn(C5CC5)n4)ccc3Cl)c2c1 [Example 278, (S)—N-(2-chloro-5-(2-cyclopropyl-2H-tetrazol-5-yl)phenyl)-5-(1-(2-hydroxypropyl)-3-methyl-1H-pyrazol-4-yl)pyrazolo[1,5-a]pyridine-3-carboxamide]
Wild type c-kit [3]
  IC50: 0.3 nM
[2]
  efflux ratio at 2 h, 1 µM: 3.6
Exon 11 KIT
  IC50: 0.2 nM

## Cc1ccc(-c2nnn(C[C@@H]3CC3(F)F)n2)cc1NC(=O)c1cnn2ccc(-c3cn[nH]c3)cc12 (single isomer, unassigned) [Example 56, (S)—N-(5-(2-((2,2-difluorocyclopropyl)methyl)-2H-tetrazol-5-yl)-2-methylphenyl)-5-(1H-pyrazol-4-yl)pyrazolo[1,5-a]pyridine-3-carboxamide or (R)—N-(5-(2-((2,2-difluorocyclopropyl)methyl)-2H-tetrazol-5-yl)-2-methylphenyl)-5-(1H-pyrazol-4-yl)pyrazolo[1,5-a]pyridine-3-carboxamide]
Wild type c-kit [1]
  IC50: 1.1 nM
[2]
  efflux ratio at 2 h, 1 µM: 24.5

## Cc1ccc(-c2nnn(C3CN(S(C)(=O)=O)C3)n2)cc1NC(=O)c1cnn2ccc(C3CC3)cc12 [Example 50, 5-cyclopropyl-N-(2-methyl-5-(2-(1-(methylsulfonyl)azetidin-3-yl)-2H-tetrazol-5-yl)phenyl)pyrazolo[1,5-a]pyridine-3-carboxamide]
Wild type c-kit [1]
  IC50: 8 nM
[2]
  efflux ratio at 2 h, 1 µM: 6.5

## Cc1cc(F)c(-c2nnn(C3CC3)n2)cc1NC(=O)c1cnn2ccc(-c3cn(CC(C)(C)O)nc3C)cc12 [Example 239, N-(5-(2-cyclopropyl-2H-tetrazol-5-yl)-4-fluoro-2-methylphenyl)-5-(1-(2-hydroxy-2-methylpropyl)-3-methyl-1H-pyrazol-4-yl)pyrazolo[1,5-a]pyridine-3-carboxamide]
Wild type c-kit [3]
  IC50: 0.3 nM
[2]
  efflux ratio at 2 h, 1 µM: 13.2
Exon 11 KIT
  IC50: 0.9 nM

## Cc1ccc(-c2nnn(C[C@H]3CC3(F)F)n2)cc1NC(=O)c1cnn2ccc(-c3cn[nH]c3)cc12 (single isomer, unassigned) [Example 55, (R)—N-(5-(2-((2,2-difluorocyclopropyl)methyl)-2H-tetrazol-5-yl)-2-methylphenyl)-5-(1H-pyrazol-4-yl)pyrazolo[1,5-a]pyridine-3-carboxamide or (S)—N-(5-(2-((2,2-difluorocyclopropyl)methyl)-2H-tetrazol-5-yl)-2-methylphenyl)-5-(1H-pyrazol-4-yl)pyrazolo[1,5-a]pyridine-3-carboxamide]
Wild type c-kit [1]
  IC50: 1.1 nM
[2]
  efflux ratio at 2 h, 1 µM: 19.7

## COC(=O)N1CC(c2cnn(-c3ccc(C)c(NC(=O)c4cnn5ccc(N6CCN(C)CC6)cc45)c3)n2)C1 [Example 81, methyl 3-(2-(4-methyl-3-(5-(4-methylpiperazin-1-yl)pyrazolo[1,5-a]pyridine-3-carboxamido)phenyl)-2H-1,2,3-triazol-4-yl)azetidine-1-carboxylate]
Wild type c-kit [3]
  IC50: 19 nM
Exon 11 KIT
  IC50: 6.4 nM

## Cc1ccc(-c2nnn(C3CN(S(=O)(=O)CCO)C3)n2)cc1NC(=O)c1cnn2ccccc12 [Example 203, N-(5-(2-(1-((2-hydroxyethyl)sulfonyl)azetidin-3-yl)-2H-tetrazol-5-yl)-2-methylphenyl)pyrazolo[1,5-a]pyridine-3-carboxamide]
Wild type c-kit [1]
  IC50: 16.7 nM
[2]
  efflux ratio at 2 h, 1 µM: 12.8

## COCCNc1ccn2ncc(C(=O)Nc3cc(-c4nnn(C5CN(C(=O)OC)C5)n4)ccc3C)c2c1 [Example 148, methyl 3-(5-(3-(5-((2-methoxyethyl)amino)pyrazolo[1,5-a]pyridine-3-carboxamido)-4-methylphenyl)-2H-tetrazol-2-yl)azetidine-1-carboxylate]
Wild type c-kit [3]
  IC50: 34.8 nM
[2]
  efflux ratio at 2 h, 1 µM: 24.9
Exon 11 KIT
  IC50: 1 nM

## Cc1ccc(-c2nnn([C@H]3C[C@H](C(F)(F)F)C3)n2)cc1NC(=O)c1cnn2ccc(-c3cn[nH]c3)cc12 [Example 44, N-(2-methyl-5-(2-((1r,3r)-3-(trifluoromethyl)cyclobutyl)-2H-tetrazol-5-yl)phenyl)-5-(1H-pyrazol-4-yl)pyrazolo[1,5-a]pyridine-3-carboxamide or N-(2-methyl-5-(2-((1s,3s)-3-(trifluoromethyl)cyclobutyl)-2H-tetrazol-5-yl)phenyl)-5-(1H-pyrazol-4-yl)pyrazolo[1,5-a]pyridine-3-carboxamide]
Wild type c-kit [1]
  IC50: 1.5 nM
[2]
  efflux ratio at 2 h, 1 µM: 15.9

## Cc1ccc(-c2nnn(C)n2)cc1NC(=O)c1cnn2ccc(-c3cn[nH]c3)cc12 [Example 43, N-(2-methyl-5-(2-methyl-2H-tetrazol-5-yl)phenyl)-5-(1H-pyrazol-4-yl)pyrazolo[1,5-a]pyridine-3-carboxamide]
Wild type c-kit [1]
  IC50: 5.4 nM
[2]
  efflux ratio at 2 h, 1 µM: 11.9

## Cc1nn(C[C@H](C)O)cc1-c1ccn2ncc(C(=O)Nc3cc(-c4nnn(C5CC5)n4)c(F)cc3Cl)c2c1 [Example 280, (S)—N-(2-chloro-5-(2-cyclopropyl-2H-tetrazol-5-yl)-4-fluorophenyl)-5-(1-(2-hydroxypropyl)-3-methyl-1H-pyrazol-4-yl)pyrazolo[1,5-a]pyridine-3-carboxamide]
Wild type c-kit [3]
  IC50: 0.2 nM
[4]
  IC50: 10 nM
NIH3T3 parental cells
  IC50: 413 nM

## COc1ccn2ncc(C(=O)Nc3cc(-c4nnn(C5CN(S(C)(=O)=O)C5)n4)ccc3C)c2c1 [Example 153, 5-methoxy-N-(2-methyl-5-(2-(1-(methylsulfonyl)azetidin-3-yl)-2H-tetrazol-5-yl)phenyl)pyrazolo[1,5-a]pyridine-3-carboxamide]
Wild type c-kit [1]
  IC50: 4.5 nM
[2]
  efflux ratio at 2 h, 1 µM: 3.9

## Cc1ccc(-c2nnn(C3CN(S(=O)(=O)C4(C)CC4)C3)n2)cc1NC(=O)c1cnn2ccccc12 [Example 181, N-(2-methyl-5-(2-(1-((1-methylcyclopropyl)sulfonyl)azetidin-3-yl)-2H-tetrazol-5-yl)phenyl)pyrazolo[1,5-a]pyridine-3-carboxamide]
Wild type c-kit [1]
  IC50: 6.4 nM
[2]
  efflux ratio at 2 h, 1 µM: 3.1

## COC[C@@H](O)Cn1cc(-c2ccn3ncc(C(=O)Nc4cc(-c5nnn(C6CC6)n5)ccc4Cl)c3c2)cn1 [Example 237, (S)-N-(2-chloro-5-(2-cyclopropyl-2H-tetrazol-5-yl)phenyl)-5-(1-(2-hydroxy-3-methoxypropyl)-1H-pyrazol-4-yl)pyrazolo[1,5-a]pyridine-3-carboxamide]
Wild type c-kit [3]
  IC50: 0.5 nM
[2]
  efflux ratio at 2 h, 1 µM: 3.2
[4]
  IC50: 15.6 nM
Exon 11 KIT
  IC50: 0.7 nM
